We go through one compound from patent USRE46511E1, “Fused pyrimidine derivatives for inhibition of tyrosine kinase activity” (HANMI SCIENCE CO., LTD., priority 2010, dated 2017).

Some results are limits rather than exact numbers.

Type in all cases: biochemical
The target in one test is T1, JAK3 (Homo sapiens, UniProt P52333).
T1 construct: purchased Invitrogen
T1 sequence (P52333 1-1124): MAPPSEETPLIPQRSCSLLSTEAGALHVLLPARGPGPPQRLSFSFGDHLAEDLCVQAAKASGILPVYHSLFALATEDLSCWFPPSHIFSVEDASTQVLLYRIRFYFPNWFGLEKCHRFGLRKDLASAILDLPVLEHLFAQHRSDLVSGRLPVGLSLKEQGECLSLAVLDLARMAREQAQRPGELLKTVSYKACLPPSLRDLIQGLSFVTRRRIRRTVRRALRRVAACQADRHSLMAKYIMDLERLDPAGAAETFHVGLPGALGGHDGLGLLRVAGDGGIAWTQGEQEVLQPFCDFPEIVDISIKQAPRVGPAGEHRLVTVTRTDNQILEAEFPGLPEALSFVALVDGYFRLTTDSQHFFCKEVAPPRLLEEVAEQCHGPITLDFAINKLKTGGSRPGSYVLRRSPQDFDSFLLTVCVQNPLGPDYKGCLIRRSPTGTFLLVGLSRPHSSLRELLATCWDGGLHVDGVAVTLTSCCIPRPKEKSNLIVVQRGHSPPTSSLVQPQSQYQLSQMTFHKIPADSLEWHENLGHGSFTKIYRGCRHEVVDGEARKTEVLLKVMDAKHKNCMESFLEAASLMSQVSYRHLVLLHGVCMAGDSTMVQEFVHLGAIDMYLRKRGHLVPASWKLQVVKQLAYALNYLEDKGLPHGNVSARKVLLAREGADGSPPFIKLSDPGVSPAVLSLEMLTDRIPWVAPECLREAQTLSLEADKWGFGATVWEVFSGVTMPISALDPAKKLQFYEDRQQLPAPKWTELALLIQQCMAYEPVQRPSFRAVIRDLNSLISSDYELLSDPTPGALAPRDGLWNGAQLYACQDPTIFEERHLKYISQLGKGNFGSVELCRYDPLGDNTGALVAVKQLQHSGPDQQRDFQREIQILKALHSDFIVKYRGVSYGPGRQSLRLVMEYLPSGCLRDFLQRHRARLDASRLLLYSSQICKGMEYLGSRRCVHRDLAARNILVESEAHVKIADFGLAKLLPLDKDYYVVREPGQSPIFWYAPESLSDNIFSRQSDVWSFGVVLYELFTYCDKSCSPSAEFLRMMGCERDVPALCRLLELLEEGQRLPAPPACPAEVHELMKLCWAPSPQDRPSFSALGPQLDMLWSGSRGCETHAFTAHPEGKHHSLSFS
Briefly: z-lyte kinase assay, JAK3. The procedure, abridged: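 Each kinase was mixed with peptide substrate, compound (dilution series made at 1–0.0001 μM in 4% DMSO) and ATP added from a 5~300 μM solution, then incubated 60 min at RT. After development reagent and stop solution, fluorescence was read at 400 nm excitation/520 nm emission and IC50 calculated.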

For another test, the target named is T2, BMX (Homo sapiens, UniProt P51813).
T2 construct: purchased Invitrogen
T2 sequence (P51813 1-675): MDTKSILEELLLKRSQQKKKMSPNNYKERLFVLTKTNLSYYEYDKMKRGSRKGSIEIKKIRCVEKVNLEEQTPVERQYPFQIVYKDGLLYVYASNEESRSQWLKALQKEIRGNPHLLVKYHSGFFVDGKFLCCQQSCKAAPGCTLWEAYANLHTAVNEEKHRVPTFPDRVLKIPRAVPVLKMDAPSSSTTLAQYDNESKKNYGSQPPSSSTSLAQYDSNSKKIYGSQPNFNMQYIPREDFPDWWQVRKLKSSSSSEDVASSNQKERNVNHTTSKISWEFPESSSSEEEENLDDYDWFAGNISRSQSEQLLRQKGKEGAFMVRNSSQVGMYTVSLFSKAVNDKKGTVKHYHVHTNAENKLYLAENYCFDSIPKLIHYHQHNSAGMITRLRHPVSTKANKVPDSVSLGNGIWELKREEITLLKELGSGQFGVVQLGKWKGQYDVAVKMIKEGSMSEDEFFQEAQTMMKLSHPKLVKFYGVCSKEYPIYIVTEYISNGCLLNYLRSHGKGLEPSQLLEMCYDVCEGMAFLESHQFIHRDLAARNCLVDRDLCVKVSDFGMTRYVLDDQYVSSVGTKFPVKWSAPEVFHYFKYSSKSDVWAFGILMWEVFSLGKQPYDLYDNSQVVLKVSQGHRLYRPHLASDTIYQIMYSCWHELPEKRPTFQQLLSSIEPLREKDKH
Briefly: z-lyte kinase assay, BMX.

The target of another test is T3, ITK (Homo sapiens, UniProt Q08881).
T3 construct: purchased Invitrogen
T3 sequence (Q08881 1-620): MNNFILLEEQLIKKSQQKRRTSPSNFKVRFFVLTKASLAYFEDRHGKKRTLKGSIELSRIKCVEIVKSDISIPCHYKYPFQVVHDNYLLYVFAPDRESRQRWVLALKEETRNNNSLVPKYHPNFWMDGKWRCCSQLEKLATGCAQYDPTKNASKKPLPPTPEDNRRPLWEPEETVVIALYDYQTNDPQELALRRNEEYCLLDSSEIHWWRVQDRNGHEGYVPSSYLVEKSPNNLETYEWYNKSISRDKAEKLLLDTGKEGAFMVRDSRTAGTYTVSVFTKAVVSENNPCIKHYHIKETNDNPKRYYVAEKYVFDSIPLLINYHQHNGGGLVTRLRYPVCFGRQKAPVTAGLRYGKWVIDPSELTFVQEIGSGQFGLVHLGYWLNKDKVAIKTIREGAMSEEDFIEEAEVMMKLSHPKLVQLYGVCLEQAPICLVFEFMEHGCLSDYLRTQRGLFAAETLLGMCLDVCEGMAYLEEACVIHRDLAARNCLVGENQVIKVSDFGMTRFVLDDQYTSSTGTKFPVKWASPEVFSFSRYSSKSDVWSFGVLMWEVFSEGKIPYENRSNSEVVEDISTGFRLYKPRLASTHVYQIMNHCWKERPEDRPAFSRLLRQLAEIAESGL
Kind of test: z-lyte kinase assay, ITK.

In the case of `C=CC(=O)Nc1cccc(Oc2nc(Nc3ccc(N4CCN(C)CC4)cc3)nc3ccsc23)c1` [Example 1, N-(3-(2-(4-(4-methylpiperazin-1-yl)phenylamino)thieno[3,2-d]pyrimidine-4-yloxy)phenyl)acrylamide], the IC50 at JAK3 is ≤ 50 nM; against BMX it was ≤ 50 nM; against ITK, 50 to 100 nM.

For orientation: IC50 means the concentration that gives 50% inhibition. A higher IC50 goes with weaker potency.
